Experimental data reported in PMC9654711, “Neuroprotective Action of Coumarin Derivatives through Activation of TRKB-CREB-BDNF Pathway and Reduction of Caspase Activity in Neuronal Cells Expressing Pro-Aggregated Tau Protein” (International Journal of Molecular Sciences, 2022).

Columns and labels:
[1] = biological target: T1, E. coli-expressed ΔK280 tauRD protein (Homo sapiens, UniProt P10636, DEL597-597); experiment: Anti-ΔK280 tauRD aggregation assay (thioflavin T); assay type: biochemical; details: compounds tested 1–10 μM, 20 μM protein, 48 h, linear interpolation, read-out: EC50 for ΔK280 tauRD aggregation inhibition
T1 construct: assessed by using E. coli-expressed ΔK280 tauRD protein; made in house; host or cells: E. coli
T1 sequence (P10636 with tags, fused parts or gaps DEL597-597): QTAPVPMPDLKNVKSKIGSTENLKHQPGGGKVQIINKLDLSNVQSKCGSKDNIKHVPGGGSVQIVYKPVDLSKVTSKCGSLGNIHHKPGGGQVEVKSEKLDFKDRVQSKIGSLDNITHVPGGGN
Description: Thioflavin T is widely used to visualize and quantify the presence of misfolded amyloid protein aggregates in vitro [74]. The tau aggregation inhibiting potential of Congo red, LM-031 and LMDS-1 to -4 was assessed by using E. coli-expressed ΔK280 tauRD protein [28]. Briefly, purified ΔK280 tauRD protein (20 μM) was incubated with Congo red or coumarin compounds (1–10 μM) in 150 mM NaCl and 20 mM Tris-HCl pH8.0, at 37 °C with shaking for 48 h to form aggregates. Then, thioflavin T (final 5 μM; Acros Organics, Geel, Belgium) was added and incubated for 25 min at room temperature. Fluorescence intensity of samples was recorded at excitation/emission wavelengths of 420/485 nm using an FLx800 microplate reader (BioTek, Winooski, VT, USA). The half maximal effective concentration (EC50) values were calculated by using a linear interpolation method.

[2] = system: ΔK280 tauRD-DsRed SH-SY5Y cells; experiment: Neurite outgrowth in cells infected with TRKB-specific or scrambled shRNA; assay type: cell-based, human; details: scrambled shRNA; 10 µM
Description: As described, ∆K280 tauRD-DsRed SH-SY5Y cells were seeded in a 24-well plate (5 × 10^4/well) with retinoic acid addition on day 1, treated with tested compounds (10 µM) and ∆K280 tauRD-DsRed expression was induced with doxycycline (2 μg/mL) on day 2. On day 8, after being fixed in 4% paraformaldehyde for 15 min, permeabilized in 0.1% Triton X-100 for 10 min and blocked in 3% bovine serum albumin (BSA) for 20 min, the cells were stained with TUBB3 (neuronal class III β-tubulin) primary antibody (1:1000; BioLegend, San Diego, CA, USA) at 4 °C overnight, followed by goat anti-rabbit Alexa Fluor® 555 secondary antibody (1:1000; Molecular probes) at room temperature for 2 h, with 4′-6-diamidino-2-phenylindole (DAPI, 0.1 µg/mL; Sigma-Aldrich) included for nuclei staining. Neuronal images were captured using the high-content analysis system as described. Neurite total length (μm), processes (primary neurite extensions projecting directly from the cell body) and branching (points at which primary neurites bifurcated) were analyzed using Neurite Outgrowth Application Module (MetaXpress; Molecular Devices). Around 5000 cells were analyzed in each of three independent experiments for each sample.
Lentiviral short hairpin RNA (shRNA) targeting TRKB (TRCN0000002243, TRCN0000002245 and TRCN0000002246) and a negative control scrambled (TRC2.Void, ASN000001) from National RNAi Core Facility, IMB/GRC, Academia Sinica, Taipei, Taiwan were applied to knock down TRKB expression in ∆K280 tauRD-DsRed SH-SY5Y cells. On day 1, cells were plated on 6-well (for protein analysis) or 24-well (for neurite outgrowth analysis) plates in the presence of retinoic acid as described. On day 2, the cells were infected with lentivirus (multiplicity of infection of 3 for each shRNA) in medium containing polybrene (8 µg/mL; Sigma-Aldrich) to increase the efficiency of viral infection. […] On day 9, the cells were collected for TRKB protein analysis or analyzed for neurite outgrowth as described.

p-ERK (T202/Y204) = experiment: Immunoblot of p-ERK (T202/Y204); assay type: cell-based, human
Description: (§1) ∆K280 tauRD-DsRed SH-SY5Y cells in 6-well plates (5 × 10^5/well) were treated with retinoic acid (10 µM) on day 1, followed by LMDS-1 or -2 (10 µM) and doxycycline (2 µg/mL) addition on day 2 as described. ERK inhibitor U0126 or PI3K inhibitor wortmannin (10 μM) (LC Laboratories, Woburn, MA, USA) was added on day 6. On day 8, the cells were collected for BDNF, BCL2, BAX and total/phosphorylated TRKB, ERK, AKT, CREB protein analyses as described.
∆K280 tauRD-DsRed SH-SY5Y cells were lysed in buffer containing 50 mM Tris-HCl (pH 8.0), 150 mM NaCl, 1 mM EDTA (pH 8.0), 1 mM EGTA (pH 8.0), 0.1% SDS, 0.5% sodium deoxycholate, 1% Triton X-100 and protease (Sigma-Aldrich)/phosphatase (Roche, Basel, Switzerland) inhibitor cocktails. After two sonications with an interval of 30 min on ice, cell lysates were collected by centrifugation at 14,000× g for 30 min at 4 °C. Protein concentrations were determined using a Bradford assay (Bio-Rad, Hercules, CA, USA). Protein samples (25 µg) were separated by 10–12% SDS-PAGE and transferred to polyvinylidene difluoride (PVDF) membranes (Sigma-Aldrich). After blocking for 2 h with 10% skimmed milk or 5% BSA in 0.1% Tween 20 in Tris-buffered saline (TBST), the membrane was incubated with primary antibody against BDNF (1:500; Santa Cruz, Santa Cruz, CA, USA), BCL2 (1:500; BioVision), BAX (1:500; BioVision), TRKB (1:1000; Cell Signaling, Danvers, MA, USA), p-TRKB (Y516) (1:1000; Cell Signaling), p-TRKB (Y817) (1:1000; Millipore, Billerica, MA, USA), ERK (1:1000; Cell Signaling), p-ERK (T202/Y204) (1:500; Cell Signaling), AKT (1:1000; Cell Signaling), p-AKT (S473) (1:1000; Cell Signaling), CREB (1:1000; Santa Cruz), p-CREB (S133) (1:1000; Millipore), JNK (1:1000; Cell Signaling), p-JNK (T183/Y185) (1:1000; Cell Signaling) or loading control glyceraldehyde-3-phosphate dehydrogenase (GAPDH) (1:1000; MDBio, Taipei, Taiwan). After three washes with TBST, the immune complexes were detected using horseradish peroxidase-conjugated goat anti-mouse or goat anti-rabbit secondary IgG antibody (1:5000, GeneTex, Irvine, CA, USA) and enhanced chemiluminescence substrates luminol and peroxide (Millipore). The primary and secondary antibodies used were diluted with TBST. The chemiluminescent detection was performed on ImageQuant™ LAS 4000mini (GE Healthcare).

pro-BDNF (31 kDa) = experiment: Immunoblot of pro-BDNF; assay type: cell-based, human; details: 10 µM; induced untreated 62%
Description: as §1
(§2) ∆K280 tauRD-DsRed SH-SY5Y cells were lysed in buffer containing 50 mM Tris-HCl (pH 8.0), 150 mM NaCl, 1 mM EDTA (pH 8.0), 1 mM EGTA (pH 8.0), 0.1% SDS, 0.5% sodium deoxycholate, 1% Triton X-100 and protease (Sigma-Aldrich)/phosphatase (Roche, Basel, Switzerland) inhibitor cocktails. After two sonications with an interval of 30 min on ice, cell lysates were collected by centrifugation at 14,000× g for 30 min at 4 °C. Protein concentrations were determined using a Bradford assay (Bio-Rad, Hercules, CA, USA). Protein samples (25 µg) were separated by 10–12% SDS-PAGE and transferred to polyvinylidene difluoride (PVDF) membranes (Sigma-Aldrich). […] After three washes with TBST, the immune complexes were detected using horseradish peroxidase-conjugated goat anti-mouse or goat anti-rabbit secondary IgG antibody (1:5000, GeneTex, Irvine, CA, USA) and enhanced chemiluminescence substrates luminol and peroxide (Millipore). […]

m-BDNF (13 kDa) = experiment: Immunoblot of m-BDNF; assay type: cell-based, human; details: 10 µM; induced untreated 69%
Description: as §1, §2

CREB = experiment: Immunoblot of CREB; assay type: cell-based, human; details: 10 µM; induced untreated 83%
Description: as §1, §2

SMILES: O=C(c1ccccc1)c1cc2c(O)cccc2oc1=O [LM-031, 3-benzoyl-5-hydroxychromen-2-one]
- EC50 [1]: 36 µM
- Neurite branching [2]: 1.05–1.07

SMILES: CCOc1ccc2cc(C(=O)c3ccccc3)c(=O)oc2c1 [LMDS-1]
- EC50 [1]: 84 µM
- p-ERK level (p-ERK (T202/Y204); 10 µM plus U0126 10 μM): 65–66%
- p-ERK level (p-ERK (T202/Y204); 10 µM, induced untreated 76%): 101–102%
- pro-BDNF level (pro-BDNF (31 kDa)): 94–99%
- m-BDNF level (m-BDNF (13 kDa)): 97–102%
- Neurite branching [2]: 1.05–1.07
- CREB level (CREB): 98–101%

SMILES: O=C(c1ccccc1)c1cc2ccc(O)cc2oc1=O [LMDS-2]
- EC50 [1]: 8 µM
- p-ERK level (p-ERK (T202/Y204); 10 µM plus U0126 10 μM): 65–66%
- p-ERK level (p-ERK (T202/Y204); 10 µM, induced untreated 76%): 101–102%
- pro-BDNF level (pro-BDNF (31 kDa)): 94–99%
- m-BDNF level (m-BDNF (13 kDa)): 97–102%
- Neurite branching [2]: 1.05–1.07
- CREB level (CREB): 98–101%
